# Measured values taken from patent US20040121954A1, “Poly(dipeptide) as a drug carrier” (priority 1999, published 2004).
# Tested on: PC3 (prostate); KB (nasopharyngeal); MDA MB 231 (breast)
# Assay: In vitro cell culture assay (MTT), cell inhibition in three human tumor cell lines
# Conditions: 72 hours
smiles,measurement,value
CC(=O)O[C@H]1C(=O)[C@@]2(C)[C@H]([C@H](OC(=O)c3ccccc3)[C@]3(O)C[C@H](OC(=O)[C@H](O)[C@@H](NC(=O)c4ccccc4)c4ccccc4)C(C)=C1C3(C)C)[C@]1(OC(C)=O)CO[C@@H]1C[C@@H]2O [paclitaxel],cell inhibition at lower concentrations,more pronounced
